Measured values: US10167299B2, “1-(3-aminopropyl) substituted cyclic amine compounds, preparation method therefor, and pharmaceutical compositions and uses thereof” (SHANGHAI INSTITUTE OF MATERIA MEDICA, CHINESE ACADEMY OF …, priority 2013, dated 2019)

Tests used:
[1] = Four days subacute toxicity test of rats; type: in vivo; conditions: SD rats; for Clinical observations, clinical pathology detection (hematology and serum biochemistry) and macroscopic morphological observation / weight gain compared with vehicle control group: gavage 4 days, 100 and 1000 mg/kg; for weight gain compared with vehicle control group: some male and female animals; for NOAEL at 4 days: both sexes, rat, in vivo, po, gavage for 4 days, read-out: No Observed Adverse Effect Level (NOAEL)
Text: After compounds 18 and 22 of the present invention were administrated to SD rats through gavage for 4 consecutive days, the toxic reaction was preliminarily assessed to confirm the possible target organ of toxic reaction.
One vehicle control group was set. Each group contained four rats including two male rats and two female rats. During the experiment stage, the animals were daily clinically observated. The body weight was regularly measured. On the 5th day, all animals were subject to pathological examination and gross anatomy.

[2] = system: Salmonella typhimurium strain TA100; test: Bacterial reverse mutation assay TA100 (-S9); type: cell-based; conditions: for mutagenic effect on Salmonella typhimurium strain TA100: -S9, 1-5000 μg/dish
Experimental: (§1) The mutagenic effects of compounds 18 and 22 of the present invention on Salmonella typhimurium strains TA98 and TA100 in non-metabolic activation (-S9) condition were determined. Two strains, TA98 and TA100 were chosen in bacterial reverse mutation assay for compounds 18 and 22. 9 doses containing […], negative and positive controls were set in experiments. 3 dishes were used for each dose. The experiment was carried out under -S9 condition.

[3] = Pharmacokinetic experiment on Beagles
Experimental: The administration volume was 2 mL/kg and 1 mL/kg, respectively. The compound was suspended in 20% PEG400 (4:96) for gavage and formulated in DMSO/Tween 80/physiological saline (5:1:94, v/v/v) for intravenous injection. […] 2 h after dosing, all of Beagles ate together.
At above time points, 0.6 ml venous blood was taken from limb venous and loaded into EDTA-2K anticoagulative tube. After centrifuged at 11000 rpm for 5 mm, the plasma was separated and frozen at −20° C. in a refrigerator.
(§2) The pharmacokinetic parameters after administration were calculated by using non-compartment model of WinNonlin 5.3 software (Pharsight Corporation, USA).

[4] = system: Salmonella typhimurium strain TA98; test: Bacterial reverse mutation assay TA98 (-S9); type: cell-based; conditions: for mutagenic effect on Salmonella typhimurium strain TA98: -S9, 1-5000 μg/dish
Experimental: as §1

[5] = system: PBMC cells; test: Toxicity test of compounds on PBMC cells (MTT); type: cell-based
Summary of the method: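 Six-point 5-fold dilutions of compound in 10% FBS RPMI-1640 or DMEM, in triplicate, with HOS-CD4-CCR5 cells (4×10^5/ml) for 3 days or PHA-stimulated PBMC (5×10^6/ml) for 7 days, fed on day 3, at 37 °C, 5% CO2. Viability by MTT, OD 570 nm, reference 630 nm.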

[6] = Pharmacokinetic experiment of rats; conditions: for AUC(0-t) / AUC(0-inf) / Cmax / MRT / Tmax / bioavailability: male, rat, plasma
Experimental: The administration volume was 10 mL/kg and drug was formulated with DMSO/Tween 80/physiological saline (5:5:90, v/v/v). […] 2 h after dosing, the rats ate together.
At above time points, 0.3 ml of venous blood was taken from retrobulbar venous plexus of the rat and loaded into EDTA-2K anticoagulative tube. After centrifuged at 11000 rpm for 5 mm, the plasma was separated and frozen at −20° C. in a refrigerator.
The concentration of each compound in rat plasma was determined by LC/MS/MS.
as §2

[7] = male, beagle, dog, plasma, iv, 3 mg/kg
[8] = male, beagle, dog, plasma, po, 15 mg/kg

Structure (SMILES) | Clinical observations, clinical pathology detection (hematology and serum biochemistry) and macroscopic morphological observation [1] | weight gain compared with vehicle control group [1] | NOAEL at 4 days [1] [mg/kg] | mutagenic effect on Salmonella typhimurium strain TA100 [2] | number of revertant colonies (Mean ± SD) ([2]; TA100, -S9, 1 μg/dish) | number of revertant colonies (Mean ± SD) ([2]; TA100, -S9, 3 μg/dish) | number of revertant colonies (Mean ± SD) ([2]; TA100, -S9, 10 μg/dish) | number of revertant colonies (Mean ± SD) ([2]; TA100, -S9, 30 μg/dish) | number of revertant colonies (Mean ± SD) ([2]; TA100, -S9, 100 μg/dish) | number of revertant colonies (Mean ± SD) ([2]; TA100, -S9, 300 μg/dish) | number of revertant colonies (Mean ± SD) ([2]; TA100, -S9, 1000 μg/dish) | number of revertant colonies (Mean ± SD) ([2]; TA100, -S9, 3000 μg/dish) | number of revertant colonies (Mean ± SD) ([2]; TA100, -S9, 5000 μg/dish) | mutagenic effect on Salmonella typhimurium strain TA98 [4] | number of revertant colonies (Mean ± SD) ([4]; TA98, -S9, 1 μg/dish) | number of revertant colonies (Mean ± SD) ([4]; TA98, -S9, 3 μg/dish) | number of revertant colonies (Mean ± SD) ([4]; TA98, -S9, 10 μg/dish) | number of revertant colonies (Mean ± SD) ([4]; TA98, -S9, 30 μg/dish) | number of revertant colonies (Mean ± SD) ([4]; TA98, -S9, 100 μg/dish) | number of revertant colonies (Mean ± SD) ([4]; TA98, -S9, 300 μg/dish) | further results
Cc1nnc(C(C)C)n1C1CC2CCC(C1)N2CC[C@H](NC(=O)C1CCC(F)(F)CC1)c1ccsc1 (stereo partly drawn) [Compound 22, 4,4-difluoro-N-[(1S)-3-[exo-3-(3-isopropyl-5-methyl-4H-1,2,4-triazol-4-yl)-8-azabicyclo[3.2.1]octane-8-yl]-1-(thiophen-3-yl)propyl]cyclohexane-1-carboxamide] | no significant drug-related changes | increased slowly or exhibited negative growth | 1000 | no mutagenic effect | 107 ± 16.7 | 109 ± 9.3 | 112 ± 10.7 | 90 ± 11.0 | 97 ± 4.6 | 102 ± 2.9 | 90 ± 6.5 | 86 ± 13.1 | 109 ± 17.5 | no mutagenic effect | 23 ± 3.2 | 24 ± 3.6 | 23 ± 2.6 | 21 ± 5.2 | 23 ± 6.7 | 23 ± 6.5 | AUC(0-t) [3]: 10900 ng·h/mL; AUC0-t ng/mL * h ([3]; Beagles, gavage, 15 mg/kg): 5426 ng·h/mL; Tmax h ([3]; Beagles, gavage, 15 mg/kg): 0.833 h; t1/2 h ([3]; Beagles, gavage, 15 mg/kg): 3.89 h; CLz ([3]; Beagles, vein, 3 mg/kg): 4.63 mL/min/kg; AUC(0-t) ([3]; male, beagle, dog, plasma, intravenous, 3 mg/kg): 10900 ng·h/mL; AUC(0-inf) [3, 7]: 10900 ng·h/mL; MRT [3, 7]: 1.65 h; half-life [3, 7]: 1.73 h; bioavailability ([3]; male, beagle, dog, plasma, oral): 9.98%; AUC(0-inf) [3, 8]: 5520 ng·h/mL; AUC(0-t) [3, 8]: 5430 ng·h/mL; Cmax [3, 8]: 4610 ng/mL; MRT [3, 8]: 2.11 h; bioavailability [3, 8]: 9.98%; half-life [3, 8]: 3.89 h; Tmax ([3]; male, beagle, dog, plasma, po, 15 mg/kg, Tmax h, Beagles, gavage): 0.833 h; number of revertant colonies (Mean ± SD) ([4]; TA98, -S9, 1000 μg/dish): 19 ± 6.4; number of revertant colonies (Mean ± SD) ([4]; TA98, -S9, 3000 μg/dish): 22 ± 5.0; number of revertant colonies (Mean ± SD) ([4]; TA98, -S9, 5000 μg/dish): 25 ± 7.2
Cc1nnc(C(C)C)n1C1CC2CCC(C1)N2CC[C@H](NC(=O)C1CCCC1)c1cccs1 (stereo partly drawn) [Compound 18, N-[(1S)-3-[exo-3-(3-isopropyl-5-methyl-4H-1,2,4-triazol-4-yl)-8-azabicyclo[3.2.1]octane-8-yl]-1-(thiophen-2-yl)propyl]cyclopentane-1-carboxamide] | no significant drug-related changes | increased slowly or exhibited negative growth | 1000 | no mutagenic effect | 116 ± 9.0 | 96 ± 10.0 | 95 ± 13.1 | 100 ± 8.3 | 88 ± 0.6 | 91 ± 18.2 | 106 ± 17.6 | 108 ± 6.9 | 95 ± 7.2 | no mutagenic effect | 24 ± 5.0 | 23 ± 2.6 | 20 ± 2.3 | 19 ± 1.5 | 15 ± 4.6 | 20 ± 4.2 | number of revertant colonies (Mean ± SD) ([4]; TA98, -S9, 1000 μg/dish): 18 ± 1.5; number of revertant colonies (Mean ± SD) ([4]; TA98, -S9, 3000 μg/dish): 21 ± 1.5; number of revertant colonies (Mean ± SD) ([4]; TA98, -S9, 5000 μg/dish): 20 ± 4.9
Cc1ccc([C@H](CCN2C3CCC2CC(n2c(C)nnc2C(C)C)C3)NC(=O)C2CCC(F)(F)CC2)s1 (stereo partly drawn) [Compound 29, 4,4-difluoro-N-[(1S)-3-[exo-3-(3-isopropyl-5-methyl-4H-1,2,4-triazol-4-yl)-8-azabicyclo[3.2.1]octane-8-yl]-1-(5-methylthiophen-2-yl)propyl]cyclohexane-1-carboxamide] | – | – | – | – | – | – | – | – | – | – | – | – | – | – | – | – | – | – | – | – | CC50 ([5]; PBMC cells (Table 5)): >200 µg/mL; CC50 ([5]; PBMC cells (Table 6)): >200 µg/mL
Cc1nnc(C(C)C)n1C1CCN(CC[C@H](NC(=O)C2CCCC2)c2cccs2)CC1 [Compound 17, N-[(1S)-3-[4-(3-isopropyl-5-methyl-4H-1,2,4-triazol-4-yl)-piperidin-1-yl]-1-(thiophen-2-yl)propyl]cyclopentane-1-carboxamide] | – | – | – | – | – | – | – | – | – | – | – | – | – | – | – | – | – | – | – | – | AUC(0-t) ([6]; intravenous, 10 mg/kg): 374 ng·h/mL; AUC(0-inf) ([6]; iv, 10 mg/kg): 394 ng·h/mL; AUC(0-t) ([6]; iv, 10 mg/kg): 374 ng·h/mL; Cmax ([6]; iv, 10 mg/kg): 246 ng/mL; MRT ([6]; iv, 10 mg/kg): 1.42 h; Tmax ([6]; iv, 10 mg/kg): 0.25 h; bioavailability ([6]; oral): 46.6%; AUC(0-inf) ([6]; po, 20 mg/kg): 364 ng·h/mL; AUC(0-t) ([6]; po, 20 mg/kg): 348 ng·h/mL; Cmax ([6]; po, 20 mg/kg): 122 ng/mL; MRT ([6]; po, 20 mg/kg): 2.31 h; Tmax ([6]; po, 20 mg/kg): 0.5 h; bioavailability ([6]; po, 20 mg/kg): 46.6%; AUC0-t ng/mL * h ([6]; rats, gavage, 20 mg/kg): 347.9 ng·h/mL; CLz ([6]; rats, vein, 10 mg/kg): 423 mL/min/kg
